In patent US20100212218A1, “5-(SUBSTITUTED METHYL) 2-METHYLFURAN” (FURANIX TECHNOLOGIES B.V., priority 2007, published 2010):

Assay: Fuel solubility: miscibility in blends with commercial diesel
Assay type: physicochemical
Description: Fuel solubility is a primary concern for diesel fuel applications. Not all highly polar oxygenates have good solubility in the current commercial diesel fuels.

[1] = all blend ratios with commercial diesel

Row | Compound | miscibility with commercial diesel [1] | miscibility with commercial diesel (5 vol % blend with commercial diesel) | miscibility with commercial diesel (25 vol % blend with commercial diesel) | miscibility with commercial diesel (40 vol % blend with commercial diesel)
1 | CCOCc1ccc(C)o1 [5-(ethoxymethyl)-2-methylfuran] | miscible in all blend ratio's | – | – | –
2 | Cc1ccc(COC(C)(C)C)o1 [5-(tertbutoxymethyl)-2-methylfuran] | miscible in all blend ratio's | – | – | –
3 | CCOCc1ccc(C=O)o1 [EMF, 5-(ethoxymethyl)furfural] | – | completely miscible | phase separation occurs | phase separation occurs
